Measured values reported in patent publication US20210196719A1, “USE OF CDK4/6 INHIBITOR IN COMBINATION WITH EGFR INHIBITOR IN THE PREPARATION OF MEDICAMENT FOR TREATING TUMOR DISEASES” (JIANGSU HENGRUI MEDICINE CO., LTD., priority 2018, published 2021).
Like-named read-outs stand apart in the source and are kept apart here.

Key:
[1] = test system: human lung cancer NCI-H1975 transplanted tumor; assay: Human lung cancer NCI-H1975 transplanted tumor model of nude mice; details: for Tumor volume (mm^3) D 1: D 1 (at grouping); for Tumor volume (mm^3) D 1 / Tumor weight / RTV (relative tumor volume) / Tumor volume (mm^3) D 22: x ± SE; for Tumor weight: D 22, after sacrifice; for T/C(%) (relative tumor growth rate): TRTV/CRTV; for RTV (relative tumor volume): Vt/V0; for Tumor volume (mm^3) D 22: intragastric q.d. 21 days, gefitinib 30, drug A 100(50), drug B 5 mg/kg
[2] = mouse, in vivo
[3] = test system: human non-small cell lung adenocarcinoma cells (NCI-H1975); assay: Proliferation inhibition of NCI-H1975 cells (SRB method, 7 days); type: cell-based; details: 168 h, read-out: Inhibition rate (%)
[4] = Body weight of nude mice in the NCI-H1975 transplanted tumor study; details: x ± SE

Row | Compound | Tumor volume (mm^3) D 1 [1] [mm^3] | Tumor weight [1] [g] | T/C(%) (relative tumor growth rate) ([1]; D 22) | RTV (relative tumor volume) ([1]; D 22) | IR (%) (tumor inhibition percentage) ([1]; D 22, by tumor weight vs control) | Tumor volume (mm^3) D 22 ([1]; D 22) [mm^3] | Average body weight (g) D 1 [2] [g] | inhibition at 0.005 µM ([3]; Drug B alone 5 nM) [%] | inhibition at 0.01 µM ([3]; Drug B alone 10 nM) [%] | Average body weight (g) D 1 ([4]; D 1, n=3) [g] | Average body weight (g) D 22 ([4]; D 22, intragastric q.d. 21 days, gefitinib 30, drug A 100(50), drug B 5 mg/kg) [g]
1 | C=CC(=O)Nc1cc(Nc2nccc(-c3cn(C4CC4)c4ccccc34)n2)c(OC)cc1N(C)CCN(C)C [Drug B] | 130 ± 44 | 0.1091 ± 0.0621 | 26.14 | 1.25±0.53 | 81.69 | 125±58 | 22.8 ± 0.7 | 50.3 | 53.8 |  | 
2 | COc1cc2ncnc(Nc3ccc(F)c(Cl)c3)c2cc1OCCCN1CCOCC1 [Gefitinib, gefitinib, reference compound] | 130 ± 41 | 0.4097 ± 0.1605 | 66.81 | 3.18±0.65 |  | 477±162 |  |  |  | 21.8 ± 0.6 | 24.5 ± 0.8
